Here are results for seven compounds from patent US20180116993A1, “MODULATORS OF FARNESOID X RECEPTOR AND METHODS FOR THE USE THEREOF” (XIAMEN UNIVERSITY, priority 2015, published 2018).

Experiment [1] deals with human breast cancer MCF7 cells. Put plainly: MTT cell viability assay, MCF-7. Format: cell-based. To be noted: 48 h, read-out: Cell viability as a percentage of the cells treated with DMSO, MCF-7. The method in brief:
(§1)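 MTT read-out of cell viability, given relative to DMSO-treated controls, after exposure to 20 uM or 40 uM compound. Cells were grown in DMEM supplemented with 10% fetal bovine serum.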

Experiment [2] addresses T1, full-length FXR (Homo sapiens, UniProt Q96RI1).
T1 construct: The cells were co-transfected with plasmids encoding full-length FXR and the cognate luciferase reporter EcRE-Luc; expressed in transfected cells; host or cells: COS-7
T1 sequence (Q96RI1 1-486): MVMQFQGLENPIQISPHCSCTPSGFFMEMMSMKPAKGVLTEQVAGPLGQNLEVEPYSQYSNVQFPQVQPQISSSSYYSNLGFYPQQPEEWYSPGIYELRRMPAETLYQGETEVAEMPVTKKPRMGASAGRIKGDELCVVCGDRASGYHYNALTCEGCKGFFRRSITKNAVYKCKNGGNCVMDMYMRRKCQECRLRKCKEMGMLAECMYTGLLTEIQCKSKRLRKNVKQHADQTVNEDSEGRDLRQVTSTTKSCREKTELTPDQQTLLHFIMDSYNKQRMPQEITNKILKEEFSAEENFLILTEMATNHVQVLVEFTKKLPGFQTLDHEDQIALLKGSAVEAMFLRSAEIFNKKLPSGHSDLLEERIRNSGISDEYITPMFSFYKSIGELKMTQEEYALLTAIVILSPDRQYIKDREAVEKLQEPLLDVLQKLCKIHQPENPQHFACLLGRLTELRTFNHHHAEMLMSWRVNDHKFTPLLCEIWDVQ
In words: Cell-based FXR transactivation, EcRE luciferase reporter in COS-7 cells. Conditions: Table 2; for Cell-based FXR transactivation Fold changes by 5 μM compound: positive: induction, minus: repression; for EC50: EcRE luciferase reporter. The method in brief:
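COS-7 cells were transiently cotransfected with full-length FXR, EcRE-Luc reporter and a renilla control. Ligands were added 5 h after transfection, and cells were harvested 24 h later. Firefly luciferase was normalized to renilla in a dual-luciferase read-out.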
(In a reporter assay the amount or activity of a reporter protein is the signal.)

The test system of experiment [3] is db/db mice. Put plainly: Hepatic triglyceride, liver histology, serum ALT and ALP in high-fat diet fed db/db mice. Format: in vivo, mouse. To be noted: for Hepatic triglyceride (mM/g): vehicle 148 ± 14; for Serum ALP (U/L): vehicle 129 ± 15. In a few lines:
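High-fat diet fed db/db mice aged 8-10 weeks dosed 10 mg/kg compound once daily for 10 days. Liver sections stained with H&E and 0.3% oil red O; hepatic triglyceride measured by tissue assay kit; serum ALP and ALT activities measured by kit.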

Experiment [4] addresses T2, FXR ligand binding domain (LBD) (Homo sapiens, UniProt Q96RI1).
T2 construct: made in house
T2 sequence (Q96RI1 262-486 limits assumed): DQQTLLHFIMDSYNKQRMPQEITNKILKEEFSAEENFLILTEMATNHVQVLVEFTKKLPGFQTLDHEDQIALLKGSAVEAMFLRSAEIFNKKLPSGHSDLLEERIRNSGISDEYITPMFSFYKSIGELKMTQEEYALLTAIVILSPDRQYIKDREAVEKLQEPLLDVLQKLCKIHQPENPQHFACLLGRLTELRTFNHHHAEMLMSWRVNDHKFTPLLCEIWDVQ
In words: AlphaScreen assay: FXR LBD recruitment of coregulator peptide motifs (SRC2-3, SRC1-2). The format is biochemical. Conditions: Table 2.

In experiment [5] the test system is human colorectal adenocarcinoma HCT15 cells. In words: MTT cell viability assay, HCT15. Format: cell-based. Conditions: 48 h, read-out: Cell viability as a percentage of the cells treated with DMSO, HCT15; for viability at 20 µM: HCT-15, 20 uM; for viability at 40 µM: HCT-15, 40 uM. The method in brief: as §1
In general terms: Formazan colour is commonly taken as a measure of viable cells.

The subject of experiment [6] is human cervical carcinoma Hela cells. Put plainly: MTT cell viability assay, Hela. The format is cell-based. To be noted: 48 h, read-out: Cell viability as a percentage of the cells treated with DMSO, Hela. In a few lines:
as §1

In experiment [7] the test system is human hepatoma HepG2 cells. Put plainly: MTT cell viability assay, HepG2. Conditions: 48 h, read-out: Cell viability as a percentage of the cells treated with DMSO, HepG2. Format: cell-based. The method in brief: as §1
The test system of experiment [8] is RA-resistant human colon cancer HCT116 cells. In words: MTT cell viability assay, HCT116. Format: cell-based. Conditions: 48 h, read-out: Cell viability as a percentage of the cells treated with DMSO, HCT116; for viability at 20 µM: HCT-116, 20 uM; for viability at 40 µM: HCT-116, 40 uM. In a few lines:
as §1

The mark [9] stands for this setting: 10 mg/kg for 10 days, vehicle 377 ± 48, Table 15.
The mark [10] stands for this setting: 10 mg/kg once daily for 10 days.
[11] abbreviates: 10 mg/kg once daily for 10 days, vehicle 377 ± 48, Table 17.
The mark [12] stands for this setting: SRC1-2 peptide, read-out: EC50 (μM) of FXR binding by AlphaScreen assay recruit SRC1-2.
Setting [13] is: SRC2-3 peptide, read-out: EC50 (μM) of FXR binding by AlphaScreen assay recruit SRC2-3.

Read-outs that look alike come from different tables or passages of the source. Marks after values point to notes of the source that are not given here.

What is called viability is the share of living cells, or the viability signal relative to a control. By EC50 is commonly meant the concentration at which the effect is half-maximal. As to `COc1cc(C(=O)OC2CCC3CCCCC3C2)ccc1O` (stereo not drawn) [XD-30, decahydro-naphthalen-2-yl 4-hydroxy-3-methoxybenzoate], the viability at 20 µM in experiment [1] came to 100 ± 2%; in experiment [5], 96 ± 2%; in experiment [6], 81%; in experiment [7], 100 ± 2%; in experiment [8], 100 ± 2%. The viability at 40 µM in experiment [1] worked out at 92 ± 2%; in experiment [5], 77 ± 2%; in experiment [6], 79 ± 2%; in experiment [7], 94 ± 2%; in experiment [8], 100 ± 2%. Moreover, in experiment [2], the “Cell-based FXR transactivation Fold changes by 5 μM compound” value came out at 3. Further, the EC50 in experiment [2] was less than 1000 nM; in experiment [4] (setting [12]), less than 0.5 µM; in experiment [4] (setting [13]), less than 0.5 µM. In addition, the “Hepatic triglyceride (mM/g)” value in experiment [3] (10 mg/kg for 10 days) is on record as 108 ± 8 ^c mM/g. In addition, the entries for the “Serum ALT (U/L)” value in experiment [3] (setting [9]) and in experiment [3] (setting [11]) were 92 ± 27 ^a U/L and 92 ± 27^a U/L, respectively. Further, the “Serum ALP (U/L)” value in experiment [3] (setting [10]) is on record as 64 ± 14^a U/L.

Regarding `CC1(C)C2CCC1(C)C(OC(=O)c1ccc(=O)oc1)C2` (stereo not drawn) [XD-9, 1,7,7-trimethyl-bicyclo[2.2.1]-heptan-2-yl 6-oxo-6H-pyran-3-carboxylate], the viability at 20 µM in experiment [1] came to 72 ± 6%; in experiment [5], 49 ± 2%; in experiment [6] it was 80 ± 3%; in experiment [7], 90 ± 3%; in experiment [8], 58 ± 2%. Further, the viability at 40 µM in experiment [1] was 31%; in experiment [5], 42 ± 3%; in experiment [6], 59 ± 5%; in experiment [7], 64 ± 3%; in experiment [8], 25 ± 2%. The “Cell-based FXR transactivation Fold changes by 5 μM compound” value in experiment [2] is 4. The EC50 in experiment [2] fell in the range of 1000 to 10000 nM; in experiment [4] (setting [12]), 1 to 10 µM; in experiment [4] (setting [13]), 1 to 10 µM. Besides, in experiment [3] (10 mg/kg for 10 days), the “Hepatic triglyceride (mM/g)” value was 93 ± 14 ^a mM/g. Moreover, the “Serum ALT (U/L)” value in experiment [3] (setting [9]) is 121 ± 33 ^a U/L.

Consider `O=C(OC1CCCCCCCCCCC1)c1ccc(O)cc1` [XD-11, cyclododecyl 4-hydroxybenzoate], for which the viability at 20 µM in experiment [1] came out at 100 ± 7%; in experiment [5] it was 89 ± 2%; in experiment [6], 100 ± 3%; in experiment [7] it was 100 ± 1%; in experiment [8], 92 ± 2%. The viability at 40 µM was 100 ± 2% in experiment [1]; 78 ± 3% in experiment [5]; 100 ± 2% in experiment [6]; 97 ± 1% in experiment [7]; 70 ± 7% in experiment [8]. Besides, the “Cell-based FXR transactivation Fold changes by 5 μM compound” value in experiment [2] amounted to 4. Also, the EC50 was 1000 to 10000 nM in experiment [2], 1 to 10 µM in experiment [4] (setting [12]) and 1 to 10 µM in experiment [4] (setting [13]). Also, the “Hepatic triglyceride (mM/g)” value in experiment [3] (10 mg/kg for 10 days) is recorded as 102 ± 13 ^a mM/g. The “Serum ALT (U/L)” value in experiment [3] (setting [9]) is 106 ± 26 ^a U/L.

`Cc1cc(C(=O)OC2CCCCCCC2)ccc1O` [XD-17, cyclooctyl 4-hydroxy-3-methylbenzoate]: the viability at 20 µM in experiment [1] was found to be 91 ± 9%; in experiment [5], 52 ± 2%; in experiment [6] it was 83 ± 4%; in experiment [7], 87%; in experiment [8] it was 82 ± 2%. Further, the viability at 40 µM in experiment [1] amounted to 25%; in experiment [5], 24 ± 3%; in experiment [6] it was 39 ± 1%; in experiment [7], 40 ± 1%; in experiment [8], 27 ± 3%. Moreover, the “Cell-based FXR transactivation Fold changes by 5 μM compound” value in experiment [2] was 3. In addition, the EC50 in experiment [2] is less than 1000 nM; in experiment [4] (setting [12]), less than 1 µM; in experiment [4] (setting [13]) it was less than 1 µM. Besides, the “Serum ALP (U/L)” value in experiment [3] (setting [10]) was 76 ± 17^a U/L. Besides, in experiment [3] (setting [11]), the “Serum ALT (U/L)” value is listed as 185 ± 51^a U/L.

In the case of `CC1(C)C2CCC1(C)C(OC(=O)c1ccc(=O)[nH]c1)C2` (stereo not drawn) [XD-8, 1,7,7-trimethyl-bicyclo[2.2.1]-heptan-2-yl 6-oxo-1,6-dihydropyridine-3-carboxylate], the viability at 20 µM in experiment [1] worked out at 94 ± 10%; in experiment [5], 78 ± 4%; in experiment [6], 97%; in experiment [7] it was 90%; in experiment [8] it was 92 ± 7%. Further, the viability at 40 µM in experiment [1] came out at 75%; in experiment [5] it was 60 ± 4%; in experiment [6] it was 71 ± 3%; in experiment [7], 64 ± 3%; in experiment [8] it was 60 ± 3%. In experiment [2], the “Cell-based FXR transactivation Fold changes by 5 μM compound” value is on record as 4. The values for the EC50 in experiment [2], in experiment [4] (setting [12]) and in experiment [4] (setting [13]) were 1000 to 10000 nM, 1 to 10 µM and 1 to 10 µM, respectively. Moreover, in experiment [3] (10 mg/kg for 10 days), the “Hepatic triglyceride (mM/g)” value is on record as 102 ± 8 ^c mM/g. Moreover, the “Serum ALT (U/L)” value in experiment [3] (setting [9]) is reported as 115 ± 31 ^a U/L.

Take `O=C(OC1CCC2CCCCC2C1)c1ccc(O)cc1` (stereo not drawn) [XD-28, decahydro-naphthalen-2-yl 4-hydroxy-benzoate]: the viability at 20 µM in experiment [1] was 100 ± 4%; in experiment [5], 99 ± 4%; in experiment [6], 94 ± 4%; in experiment [7], 100 ± 4%; in experiment [8], 100 ± 4%. In addition, the viability at 40 µM turned out to be 98 ± 4% in experiment [1]; 81 ± 4% in experiment [5]; 92 ± 4% in experiment [6]; 96 ± 4% in experiment [7]; 88 ± 4% in experiment [8]. The “Cell-based FXR transactivation Fold changes by 5 μM compound” value in experiment [2] was determined as 3. Further, the EC50 was less than 1000 nM in experiment [2], less than 0.5 µM in experiment [4] (setting [12]) and less than 0.5 µM in experiment [4] (setting [13]). In experiment [3] (10 mg/kg for 10 days), the “Hepatic triglyceride (mM/g)” value is on record as 87 ± 10 ^c mM/g. Further, in experiment [3] (setting [9]), the “Serum ALT (U/L)” value was 103 ± 17^b U/L.

As for `CC1(C)C2CCC1(C)C(OC(=O)c1ccncc1)C2` (stereo not drawn) [XD-6, 1,7,7-trimethyl-bicyclo[2.2.1]-heptan-2-yl isonicotinate], the viability at 20 µM in experiment [1] was 100 ± 8%; in experiment [5], 57 ± 2%; in experiment [6], 100 ± 1%; in experiment [7] it was 99 ± 1%; in experiment [8], 61 ± 1%. The viability at 40 µM came to 61% in experiment [1]; 42 ± 3% in experiment [5]; 76 ± 1% in experiment [6]; 70 ± 2% in experiment [7]; 45 ± 2% in experiment [8]. Further, in experiment [2], the “Cell-based FXR transactivation Fold changes by 5 μM compound” value is on record as more than 10. The figures for the EC50 in experiment [2], in experiment [4] (setting [12]) and in experiment [4] (setting [13]) were 1000 to 10000 nM, 1 to 10 µM and 1 to 10 µM, respectively. The “Hepatic triglyceride (mM/g)” value in experiment [3] (10 mg/kg for 10 days) was 90 ± 11^b mM/g. Besides, the “Serum ALT (U/L)” value in experiment [3] (setting [9]) is 101 ± 28 ^a U/L.
